In patent US20250304560A1, “MODULATORS OF NLRP3 INFLAMMASOME AND RELATED PRODUCTS AND METHODS” (Neumora Therapeutics, Inc., priority 2022, published 2025):
Where two headings read alike, the source gives them in different places.

Key:
[1] = target: NLRP3 inflammasome (Homo sapiens, UniProt Q96P20); experiment: NLRP3 inflammasome activation in THP1 macrophages, IL-1β AlphaLISA
[2] = tested on: IL-6; experiment: IL-6 AlphaLISA in LPS-primed THP1 macrophages
[3] = Homo sapiens, THP-1, read-out: IL-6 Activity (μM)
[4] = IL-1β Activity (nM), THP1 macrophages, PMA, LPS priming, nigericin 6.7 uM activation
[5] = Homo sapiens, THP-1, read-out: IL-6 Activity (μM), THP1 macrophages, PMA, LPS priming, nigericin 6.7 uM

NLRP3 inflammasome, sequence (Q96P20 whole entry): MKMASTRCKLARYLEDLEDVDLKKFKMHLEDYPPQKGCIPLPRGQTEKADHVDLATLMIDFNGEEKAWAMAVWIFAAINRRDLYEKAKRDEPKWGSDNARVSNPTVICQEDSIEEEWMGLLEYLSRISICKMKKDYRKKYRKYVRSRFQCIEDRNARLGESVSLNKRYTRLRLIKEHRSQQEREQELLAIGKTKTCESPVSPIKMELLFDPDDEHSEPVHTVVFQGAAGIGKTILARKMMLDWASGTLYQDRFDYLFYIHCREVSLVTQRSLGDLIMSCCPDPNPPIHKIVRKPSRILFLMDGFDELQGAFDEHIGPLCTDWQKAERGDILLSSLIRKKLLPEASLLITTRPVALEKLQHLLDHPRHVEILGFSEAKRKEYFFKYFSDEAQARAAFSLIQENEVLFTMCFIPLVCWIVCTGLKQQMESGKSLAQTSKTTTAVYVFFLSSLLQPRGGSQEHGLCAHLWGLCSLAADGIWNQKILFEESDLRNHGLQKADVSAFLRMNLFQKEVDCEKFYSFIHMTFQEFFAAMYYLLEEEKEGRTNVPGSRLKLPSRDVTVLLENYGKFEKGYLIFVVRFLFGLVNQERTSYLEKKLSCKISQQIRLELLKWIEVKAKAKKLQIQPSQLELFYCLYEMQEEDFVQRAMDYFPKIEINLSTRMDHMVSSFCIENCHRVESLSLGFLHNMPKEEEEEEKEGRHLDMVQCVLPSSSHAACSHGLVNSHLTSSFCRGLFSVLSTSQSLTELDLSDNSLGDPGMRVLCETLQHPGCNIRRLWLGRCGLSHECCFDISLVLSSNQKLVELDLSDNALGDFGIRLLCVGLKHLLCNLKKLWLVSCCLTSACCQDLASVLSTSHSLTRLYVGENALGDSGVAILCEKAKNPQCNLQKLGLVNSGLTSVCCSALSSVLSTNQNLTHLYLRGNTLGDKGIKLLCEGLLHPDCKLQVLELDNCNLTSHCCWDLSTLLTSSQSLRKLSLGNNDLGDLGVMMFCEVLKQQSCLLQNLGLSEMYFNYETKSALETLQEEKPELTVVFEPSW

SMILES | IC50 [1] [nM] | IC50 [2, 3] [µM] | IC50 [1, 4] [nM] | IC50 [2, 5] [µM] | IC50 ([2]; read-out: IL-6 Activity, THP1 macrophages, PMA, LPS priming, nigericin 6.7 uM) [µM]
Cc1cc(NC[C@@H]2CCCO2)nnc1-c1ccccc1O [compound 117] | 500 to 1000 | > 10 |  |  | 
Cc1cc(-c2nnc(N[C@@H]3CCCN(C)C3)cc2C)c(O)cc1C(F)(F)F [compound 76] |  |  | 1 to 10 | 5 to 10 | 
Cc1cc(N(C)[C@@H]2CCCN(C)C2)nnc1-c1ccccc1O [compound 23] |  |  | 10 to 100 | > 10 | 
Cc1ccc(O)c(-c2ccc(N[C@@H]3CCCN(C)C3)nn2)c1 [compound 4] |  |  | 100 to 500 | > 10 | 
Cc1cc(-c2cc(C)c(N[C@@H]3CCCN(C)C3)nn2)c(O)cc1F [compound 79] |  |  | 100 to 500 | < 1 | 
Cc1cc(N[C@@H]2CC[C@@H](C(=O)O)NC2)nnc1-c1ccccc1O [compound 94] |  |  | > 1000 | > 10 | 
Cc1cc(-c2ccc(C(F)(F)F)cc2O)nnc1N[C@@H]1CCCN(C)C1 [compound 74] |  |  |  | > 10 | 
Cc1c(F)ccc(-c2ccc(N[C@@H]3CCCN(C)C3)nn2)c1O [compound 10] |  |  | 10 to 100 | 5 to 10 | 
Cc1cc(C[C@@H]2CCCN(C)C2)nnc1-c1ccc(F)cc1O [compound 36, (S)-5-fluoro-2-(4-methyl-6-((1-methylpiperidin-3-yl)methyl)pyridazin-3-yl) phenol] | 10 to 100 | > 10 |  |  | 
Cc1cc(NC[C@@H]2COCCO2)nnc1-c1ccccc1O [compound 120] | > 1000 | > 10 |  |  | 
Cc1cc(NCC2CCOCC2)nnc1-c1ccccc1O [compound 115] | > 1000 | > 10 |  |  | 
CCc1cc(C)c(-c2ccc(N[C@@H]3CCCN(C)C3)nn2)c(O)c1 [compound 12] |  |  | < 1 | > 10 | 
Cc1cc(NC[C@@H]2CCCN2C)nnc1-c1ccccc1O [compound 121] | > 1000 | > 10 |  |  | 
CCc1ccc(-c2cc(C)c(N[C@@H]3CCCN(C)C3)nn2)c(O)c1 [compound 16] |  |  | 1 to 10 |  | 
Cc1cc(N[C@@H]2C[C@H](F)CN(C)C2)nnc1-c1ccccc1O [compound 42] |  |  | 10 to 100 | > 10 | 
Cc1ccc(O)c(-c2ccc(N(C)[C@@H]3CCCN(C)C3)nn2)c1 [compound 19] |  |  | > 1000 | 5 to 10 | 
Cc1cc(N[C@H]2CN(C)CC(F)(F)C2)nnc1-c1ccc(F)cc1O [compound 45] |  |  | 100 to 500 | > 10 | 
Cc1cc(-c2ccc(C(=O)O)cc2O)nnc1N[C@@H]1CCCN(C)C1 [compound 93] |  |  | > 1000 | > 10 | 
Cc1cc(N[C@@H]2CCCN(CCF)C2)nnc1-c1ccccc1O [compound 39] |  |  | 10 to 100 | > 10 | 
Cc1cc(N[C@@H]2CCCN(C)C2)nnc1-c1ncccc1O [compound 108] | 100 to 500 | > 10 |  |  | 
Cc1cc(-c2c(C)cccc2O)nnc1N[C@@H]1CCCN(C)C1 [compound 78] |  |  | 1 to 10 | > 10 | 
Cc1cc(NC[C@@H]2CCC(F)(F)C2)nnc1-c1ccccc1O [compound 114] | > 1000 | > 10 |  |  | 
Cc1cc(-c2ccc(C#N)cc2O)nnc1O[C@@H]1CCCN(C)C1 [compound 101] | > 1000 | > 10 |  |  | 
Cc1cc(N2CCC[C@@H](N(C)C)C2)nnc1-c1ccccc1O [compound 111] | 100 to 500 | > 10 |  |  | 
Cc1cc(N[C@@H]2C[C@H](F)CN(C)C2)nnc1-c1ccc(F)cc1O [compound 47] |  |  | 10 to 100 | > 10 | 
CCc1ccc(-c2ccc(N[C@@H]3CCCN(C)C3)nn2)c(O)c1 [compound 14] |  |  | 10 to 100 | > 10 | 
Cc1cc(NC[C@H]2CCCN2C)nnc1-c1ccccc1O [compound 122] | > 1000 | > 10 |  |  | 

SMILES | IC50 [1] [nM] | IC50 [2, 3] [µM] | IC50 [1, 4] [nM] | IC50 [2, 5] [µM] | IC50 ([2]; read-out: IL-6 Activity, THP1 macrophages, PMA, LPS priming, nigericin 6.7 uM) [µM]
Cc1cc(C[C@@H]2CCCN(C)C2)nnc1-c1ccccc1O [compound 70] | 10 to 100 | > 10 |  |  | 
CCN1CCC[C@@H](Nc2cc(C)c(-c3ccccc3O)nn2)C1 [compound 56] |  |  | < 1 | > 10 | 
CN1CCC[C@@H](N(C)c2ccc(-c3ccccc3O)nn2)C1 [compound 17] |  |  | > 1000 | > 10 | 
Cc1ccc(-c2cc(C)c(N[C@@H]3CCCN(C)C3)nn2)c(O)c1 [compound 82] |  |  | 10 to 100 | < 1 | 
Cc1cc(-c2ccccc2O)nnc1N[C@@H]1CCCN(CCF)C1 [compound 85] |  |  | > 1000 | > 10 | 
Cc1cc(C2CC2)cc(O)c1-c1ccc(N[C@@H]2CCCN(C)C2)nn1 [compound 13] | 1 to 10 | > 10 |  |  | 
Cc1cc(N[C@@H]2CCCN(C(C)C)C2)nnc1-c1ccccc1O [compound 57] |  |  | < 1 | 5 to 10 | 
Cc1cc(N[C@@H]2CC[C@@H](C(=O)O)N(C)C2)nnc1-c1ccccc1O [compound 95] |  |  | > 1000 | > 10 | 
Cc1cc(N(C)[C@@H]2CCCN(C)C2)nnc1-c1ccc(F)cc1O [compound 26] |  |  | 1 to 10 | > 10 | 
Cc1cc(-c2ccc(C(F)(F)F)cc2O)nnc1O[C@@H]1CCCN(C)C1 [compound 98] | 100 to 500 | > 10 |  |  | 
Cc1cc(-c2ccccc2O)nnc1N[C@@H]1CCCN(C)C1 [compound 8] |  |  | 1 to 10 | > 10 | 
Cc1cc(-c2ccc(N[C@@H]3CCCN(C)C3)nn2)c(O)cc1F [compound 9] |  |  | 100 to 500 | > 10 | 
Cc1cccc(-c2ccc(N(C)[C@@H]3CCCN(C)C3)nn2)c1O [compound 18] |  |  | > 1000 | 5 to 10 | 
Cc1cc(O[C@@H]2CCCN(C)C2)nnc1-c1ccc(C#N)cc1O [compound 100] | 100 to 500 | > 10 |  |  | 
Cc1cc(-c2ccc(F)c(C)c2O)nnc1N[C@@H]1CCCN(C)C1 [compound 80] |  |  | 1 to 10 | 5 to 10 | 
Cc1cc(N[C@@H]2CCCN(CCF)C2)nnc1-c1ccc(F)cc1O [compound 44] |  |  | 1 to 10 | > 10 | 
Cc1cc(N[C@@H]2CCCN(C)C2)nnc1-c1ncc(F)cc1O [compound 109] | 100 to 500 | 5 to 10 |  |  | 
CN1CCC[C@@H](Nc2cc(F)c(-c3ccccc3O)nn2)C1 [compound 52] |  |  | 1 to 10 | > 10 | 
Cc1cc(N[C@H]2CN(C)CC[C@@H]2F)nnc1-c1ccccc1O [compound 43] |  |  | 10 to 100 | > 10 | 
CCN1CCC[C@@H](Nc2cc(C)c(-c3ccc(F)cc3O)nn2)C1 [compound 58] |  |  | < 1 | 5 to 10 | 
Cc1cc(N[C@@H]2CCCN(C(C)C)C2)nnc1-c1ccc(F)cc1O [compound 59] |  |  | < 1 | 5 to 10 | 
Cc1cc(N[C@@H]2CCCN(C)C2)nnc1-c1ccc(F)c(C)c1O [compound 38] |  |  | 1 to 10 |  | 1 to 5
Cc1cc(C[C@H]2CCCN(C)C2)nnc1-c1ccc(F)cc1O [compound 106, (R)-5-fluoro-2-(4-methyl-6-((1-methylpiperidin-3-yl)methyl)pyridazin-3-yl) phenol] | > 1000 | > 10 |  |  | 
Cc1cc(-c2ccc(Cl)cc2O)nnc1N[C@@H]1CCCN(C)C1 [compound 83] |  |  | 1 to 10 |  | 
Cc1cc(C(F)(F)F)cc(O)c1-c1ccc(N[C@@H]2CCCN(C)C2)nn1 [compound 75] |  | > 10 |  |  | 
Cc1cc(NC[C@H]2COCCO2)nnc1-c1ccccc1O [compound 119] | > 1000 |  |  |  | 
Cc1cc(N[C@@H]2C[C@@H](F)CN(C)C2)nnc1-c1ccccc1O [compound 41] |  |  | 10 to 100 |  | 
